± gives the standard deviation.

This series can be described thus: chemical recovery from spiked human plasma; higher = better extraction. To be noted: pooled human plasma.
Where [1] appears, read: extraction method: PES+SPE (3 d PDMS equilibration then HLB SPE).
Where [2] appears, read: extraction method: SPE only (HLB 96-well).
Where [3] appears, read: extraction method: solvent precipitation (ACN + hexane).
Where [4] appears, read: extraction method: SPE only (HLB 96-well), PES comparison experiment.

On to `CC(Oc1ccc(Oc2ncc(C(F)(F)F)cc2Cl)cc1)C(=O)O` (centres undefined) [Haloxyfop-P], for which the chemical recovery under setting [1] was 41 ± 2.6%, the chemical recovery under setting [2] was determined as 33.1 ± 3.1% and the chemical recovery under setting [3] is 68.1 ± 2.8%.
Consider `Cc1nccc2c1[nH]c1ccccc12` [Harman], for which the chemical recovery stood at 36.2 ± 5.5% under setting [1], 34.9 ± 2.5% under setting [2], 48.2 ± 6% under setting [4] and 74.4 ± 3.2% under setting [3].
`COc1ccc2c(c1)[nH]c1c(C)nccc12` [Harmine]: the chemical recovery under setting [1] amounted to 37.8 ± 5.3%, the chemical recovery under setting [2] was 37.3 ± 2.9% and the chemical recovery under setting [4] was 48.6 ± 4.2%.
With `ClC1=C(Cl)C2(Cl)C3C4OC4C(Cl)C3C1(Cl)C2(Cl)Cl` (centres undefined) [Heptachlor epoxide], the chemical recovery stood at 1.06 ± 0.28% under setting [2] and 18.7 ± 2.8% under setting [3].
As to `CCCCCCCCCCCCCCCC[N+](C)(C)C` [Hexadecyltrimethylammonium], the chemical recovery under setting [2] came out at 50.1 ± 19%.
For `CCCCCCN` [Hexylamine], the chemical recovery under setting [1] turned out to be 3.2 ± 1.1%, the chemical recovery under setting [2] turned out to be 8.65 ± 5.7% and the chemical recovery under setting [3] was determined as 19.7 ± 6%.
Regarding `CC1CC(OC(=O)c2ccccc2O)CC(C)(C)C1` (centres undefined) [Homosalate], the chemical recovery under setting [2] is 0.169 ± 0.033% and the chemical recovery under setting [3] is 41 ± 2.4%.
Under setting [2], `c1ccc(NNc2ccccc2)cc1` [Hydrazobenzene] registered a chemical recovery of 2.13 ± 0.29%.
In the case of `CC(=O)OCC(=O)[C@@]1(O)CC[C@H]2[C@@H]3CCC4=CC(=O)CC[C@]4(C)[C@H]3[C@@H](O)C[C@@]21C` [Hydrocortisonacetate], the chemical recovery under setting [4] turned out to be 47.4 ± 6.2%.
With `CCN(CCO)CCCC(C)Nc1ccnc2cc(Cl)ccc12` (centres undefined) [Hydroxychloroquine], under setting [4], the chemical recovery is 9.45 ± 7.5%.
As to `N=C1NCCN1Cc1ccc(Cl)nc1` [Imidacloprid-guanidine], the chemical recovery under setting [2] was found to be 26.9 ± 4.3% and the chemical recovery under setting [3] is 73 ± 3%.
Regarding `O=C(O)Cc1c[nH]c2ccccc12` [Indole-3-acetic acid], the chemical recovery under setting [4] worked out at 79.9 ± 19%.
For the compound `O=C(O)/C=C/c1c[nH]c2ccccc12` [Indole-3-acrylic-acid], the chemical recovery by setting is: under setting [1], 37.5 ± 5%; under setting [2], 45.2 ± 13%.
With `c1ccc2[nH]ccc2c1` [Indole], the chemical recovery under setting [2] was 8.76 ± 5.2% and the chemical recovery under setting [3] was found to be 52.5 ± 14%.
Consider `CC(C)C1CCC(Cc2ccc(Cl)cc2)C1(O)Cn1cncn1` (centres undefined) [Ipconazole], for which the chemical recovery is, setting by setting: under setting [1], 56.7 ± 6%; under setting [2], 45.5 ± 5.7%; under setting [3], 75.8 ± 5.9%.
For `CC(C)NC(=O)N1CC(=O)N(c2cc(Cl)cc(Cl)c2)C1=O` [Iprodione], the chemical recovery is, setting by setting: under setting [2], 28.3 ± 5.6%; under setting [3], 6.49 ± 2.1%.
Consider `CCC(Cc1ccccc1)(C(=O)c1ccc(N2CCOCC2)cc1)N(C)C` (centres undefined) [Irgacure-369], for which the chemical recovery by setting is: under setting [1], 19.4 ± 3.7%; under setting [2], 36.8 ± 1.1%; under setting [3], 77.2 ± 5.5%.
Turning to `CCCCCCCCSc1nc(Nc2cc(C(C)(C)C)c(O)c(C(C)(C)C)c2)nc(SCCCCCCCC)n1` [Irganox-565], the chemical recovery under setting [2] is 0.236 ± 0.16%.
For `CC(C)(C)c1cc(CCC(=O)NCCCCCCNC(=O)CCc2cc(C(C)(C)C)c(O)c(C(C)(C)C)c2)cc(C(C)(C)C)c1O` [Irganox-1098], the chemical recovery under setting [3] is 55.3 ± 6.4%.
Same read-out and setting: as for `O=C(O)c1cccc(C(=O)O)c1` [Isophthalic-acid], the figure is 12.5 ± 5.4%.
`CC(C)C1C2CCC1c1c(NC(=O)c3cn(C)nc3C(F)F)cccc12` (centres undefined) [Isopyrazam]: the chemical recovery under setting [1] turned out to be 56.7 ± 6.3%, the chemical recovery under setting [2] worked out at 42.1 ± 4.9% and the chemical recovery under setting [3] is 72.1 ± 4.6%.
Turning to `CC[C@H](C)[C@H]1O[C@]2(CC[C@@H]1C)C[C@@H]1C[C@@H](C/C=C(\C)[C@@H](O[C@H]3C[C@H](OC)[C@@H](O[C@H]4C[C@H](OC)[C@@H](O)[C@H](C)O4)[C@H](C)O3)[C@@H](C)/C=C/C=C3\CO[C@@H]4[C@H](O)C(C)=C[C@@H](C(=O)O1)[C@]34O)O2` [Ivermectin B1a], under setting [4], the chemical recovery amounted to 16.6 ± 4.9%.
`CC[C@H](C)[C@H]1O[C@]2(CC[C@@H]1C)C[C@@H]1C[C@@H](C/C=C(\C)[C@@H](O[C@H]3C[C@H](OC)[C@@H](O[C@H]4C[C@H](OC)[C@@H](O)[C@H](C)O4)[C@H](C)O3)[C@@H](C)/C=C/C=C3\CO[C@@H]4[C@H](O)C(C)=C[C@@H](C(=O)O1)[C@]34O)O2` [Ivermectin-B1a]: the chemical recovery under setting [2] was determined as 11.5 ± 2.3% and the chemical recovery under setting [3] came to 30.3 ± 2.3%.
As to `CNC1(c2ccccc2Cl)CCCCC1=O` (centres undefined) [Ketamine], the chemical recovery came to 10.8 ± 4.5% under setting [1], 32.2 ± 2.1% under setting [2], 45.4 ± 6.8% under setting [4] and 59 ± 2.7% under setting [3].
`N[C@@H](Cc1cc(I)c(Oc2cc(I)c(O)c(I)c2)c(I)c1)C(=O)O` [L-Thyroxine]: the chemical recovery was determined as 50.6 ± 7.1% under setting [1], 36.5 ± 3.8% under setting [2] and 30.8 ± 3.3% under setting [3].
With `CCCCCCCCCCCCOC(=O)c1cc(O)c(O)c(O)c1` [Lauryl-gallate], the chemical recovery under setting [2] worked out at 21.9 ± 6.3%.
As for `CC[C@@H](C(N)=O)N1CCCC1=O` [Levetiracetam], the chemical recovery is, setting by setting: under setting [2], 21.4 ± 8.7%; under setting [3], 78 ± 3.8%.
For `CCN(CC)CC(=O)Nc1c(C)cccc1C` [Lidocaine], the chemical recovery worked out at 1.08 ± 0.9% under setting [1], 37.5 ± 7.4% under setting [2], 42.3 ± 6.8% under setting [4] and 67.9 ± 4.2% under setting [3].
As to `CCC[C@@H]1C[C@@H](C(=O)N[C@@H]([C@H]2O[C@H](SC)[C@H](O)[C@@H](O)[C@H]2O)[C@@H](C)O)N(C)C1` [Lincomycin], the chemical recovery by setting is: under setting [4], 42.1 ± 11%; under setting [3], 74.7 ± 4.9%.
In the case of `CON(C)C(=O)Nc1ccc(Cl)c(Cl)c1` [Linuron], the chemical recovery under setting [1] amounted to 46.9 ± 7.1%, the chemical recovery under setting [2] worked out at 50.1 ± 0.84%, the chemical recovery under setting [4] worked out at 50.2 ± 7.8% and the chemical recovery under setting [3] was 69.6 ± 2.5%.
Turning to `C[C@@H](O)CCCCn1c(=O)c2c(ncn2C)n(C)c1=O` [Lisofylline], the chemical recovery runs as follows: under setting [1], 42.8 ± 3.6%; under setting [2], 35.7 ± 3.2%; under setting [3], 76.1 ± 3.5%.
The like results for `Cc1cc(Cl)ccc1OCCCC(=O)O` [MCPB] were, in that order, 44.6 ± 2%, 35.9 ± 1.6% and 66.9 ± 4.5%.
For `C#CCOc1ccc(CCNC(=O)C(OCC#C)c2ccc(Cl)cc2)cc1OC` (centres undefined) [Mandipropamid] the same measures were 70.3 ± 10%, 58.4 ± 2.1% and 82.4 ± 3.2%.
For the compound `Nc1nc(N)nc(N)n1` [Melamine], the chemical recovery reads like this: under setting [1], 2.47 ± 0.79%; under setting [2], 1.58 ± 0.33%; under setting [4], 0.589 ± 1.2%.
For the compound `COc1ccc2[nH]cc(CCNC(C)=O)c2c1` [Melatonin], the chemical recovery under setting [1] came to 37.8 ± 2.6%, the chemical recovery under setting [2] amounted to 41.7 ± 7.2% and the chemical recovery under setting [3] turned out to be 74.6 ± 2.9%.
For `CC1CCN(CCCC(=O)c2ccc(F)cc2)CC1` [Melperon], the chemical recovery is, setting by setting: under setting [1], 0.434 ± 0.15%; under setting [2], 35.9 ± 3%; under setting [4], 48.8 ± 6.8%; under setting [3], 61 ± 4.4%.
`CC#Cc1cc(C)nc(Nc2ccccc2)n1` [Mepanipyrim]: the chemical recovery under setting [3] stood at 70.7 ± 2.9%.
In the case of `C[N+]1(C)CCCCC1` [Mepiquat], the chemical recovery by setting is: under setting [1], 0.578 ± 0.063%; under setting [2], 0.813 ± 0.44%; under setting [4], 11.3 ± 9.5%; under setting [3], 108 ± 18%.
For `COC(=O)c1ccc(CNS(C)(=O)=O)cc1S(=O)(=O)NC(=O)Nc1nc(OC)cc(OC)n1` [Mesosulfuron-methyl], the chemical recovery runs as follows: under setting [1], 40.3 ± 5.8%; under setting [2], 41.4 ± 2.8%; under setting [3], 74.9 ± 5.7%.
For the compound `Cc1nnc(-c2ccccc2)c(=O)[nH]1` [Metamitron-desamino], the chemical recovery stood at 53 ± 3.3% under setting [1], 49.5 ± 3.9% under setting [2] and 73.9 ± 3.2% under setting [3].
For the compound `Cc1nnc(-c2ccccc2)c(=O)n1N` [Metamitron], the chemical recovery was 53 ± 4.2% under setting [1], 46.3 ± 4.3% under setting [2], 92.5 ± 14% under setting [4] and 70.3 ± 0.41% under setting [3].
On to `Cc1cccc(C)c1N(Cn1cccn1)C(=O)CO` [Metazachlor-2-hydroxy], for which the chemical recovery under setting [1] came to 49 ± 6.5%, the chemical recovery under setting [2] is 40.1 ± 3.3% and the chemical recovery under setting [3] amounted to 73.7 ± 3.7%.
`C=C(C)C(N)=O` [Methacrylamide] came in with a chemical recovery under setting [1] of 0.198 ± 0.34%.
For `CNC(=O)Oc1cc(C)c(S(C)(=O)=O)c(C)c1` [Methiocarb-sulfone], the chemical recovery came out at 0.129 ± 0.019% under setting [1] and 19.9 ± 1.6% under setting [2].
Regarding `Cc1cc(O)cc(C)c1[S+](C)[O-]` (centres undefined) [Methiocarb-sulfoxide-phenol], the chemical recovery is 71.6 ± 6.9% under setting [1], 47.4 ± 5.3% under setting [2] and 73.1 ± 4.4% under setting [3].
Regarding `CNC(=O)Oc1cc(C)c(SC)c(C)c1` [Methiocarb], the chemical recovery was 0.0787 ± 0.035% under setting [1], 32.8 ± 0.78% under setting [2] and 0.163 ± 0.33% under setting [4].
In the case of `COc1ccccc1OCC(O)COC(N)=O` (centres undefined) [Methocarbamol], the chemical recovery is, setting by setting: under setting [1], 40.6 ± 2.7%; under setting [2], 36.1 ± 3.5%; under setting [3], 70.6 ± 2%.
The like results for `CNC(=O)O/N=C(\C)SC` [Methomyl] were, in that order, 50.6 ± 5%, 47.3 ± 1.8% and 75.8 ± 3.8%.
`CN(Cc1cnc2nc(N)nc(N)c2n1)c1ccc(C(=O)N[C@@H](CCC(=O)O)C(=O)O)cc1` [Methotrexate]: the chemical recovery is, setting by setting: under setting [1], 60.3 ± 4%; under setting [2], 60.1 ± 3.9%; under setting [4], 38.1 ± 4.1%.
Turning to `COC(=O)CCc1cc(C(C)(C)C)c(O)c(C(C)(C)C)c1` [Methyl-3-(3,5-di-tert-butyl-4-hydroxyphenyl)propionate], the chemical recovery is, setting by setting: under setting [2], 24.9 ± 3.3%; under setting [3], 57.6 ± 7%.
Regarding `Cn1sc(Cl)cc1=O` [Methylchloroisothiazolinone], the chemical recovery reads like this: under setting [2], 0.906 ± 0.2%; under setting [4], 0.321 ± 0.64%; under setting [3], 0.0132 ± 0.023%.
Consider `CC(C)NCC(O)COc1ccc(CC(=O)O)cc1` (centres undefined) [Metoprolol acid], for which the chemical recovery under setting [1] is 41.1 ± 5%, the chemical recovery under setting [2] stood at 33.5 ± 2.9% and the chemical recovery under setting [3] was 54.1 ± 9.1%.
Turning to `CC(C)NCC(O)COc1ccc(CC(=O)O)cc1` (centres undefined) [Metoprolol-acid], the chemical recovery is 52.1 ± 13% under setting [2] and 47.1 ± 8.4% under setting [3].
As to `COCCc1ccc(OCC(O)CNC(C)C)cc1` (centres undefined) [Metoprolol], the chemical recovery reads like this: under setting [1], 21.9 ± 2.5%; under setting [2], 36.2 ± 2.6%; under setting [4], 44 ± 5.4%; under setting [3], 75.2 ± 2.3%.
As to `COc1cc(C)c(C(=O)c2c(OC)ccc(Br)c2C)c(OC)c1OC` [Metrafenone], the chemical recovery was determined as 50.3 ± 9.1% under setting [2] and 76.4 ± 4.6% under setting [3].
For `Cc1ncc([N+](=O)[O-])n1CCO` [Metronidazole] the same measures were 21.2 ± 3.4% and 70.6 ± 4.1%.
As for `CN1CCN2c3ncccc3Cc3ccccc3C2C1` (centres undefined) [Mirtazapine], the chemical recovery is 0.274 ± 0.11% under setting [1], 30.4 ± 2.3% under setting [2], 29.9 ± 9.5% under setting [4] and 69.4 ± 3.5% under setting [3].
Turning to `CC(C)COC(=O)c1ccccc1C(=O)O` [Mono-iso-butyl-phthalate], the chemical recovery is, setting by setting: under setting [2], 44.7 ± 3.3%; under setting [3], 65.5 ± 6.9%.

The values above are taken from the supplement of paper PMC10702517.
